# Laboratory results reported in patent US12162935B2, “Regimens, compositions and methods with capsaicin and TNF-alpha inhibitor” (priority 2018, dated 2024).
# Experiments:
# UB/OC-1 cells = test: Cell viability assay (MTS assay); assay type: cell-based; conditions: capsaicin 2.5 μM prior to cisplatin 20 μM
# Description: The in vitro UB/OC1 cell proliferation was performed by using the CellTiter 96® AQueous One Solution Cell Proliferation Assay Kit (Promega, Madison, WI), according to the manufacturer's instructions. 3,500 cells were seeded per well into a 96-well plate. […] After 48 h, 20 μl of CellTiter 96 AQueous One Solution reagent was added to each well in 100 μl of total volume of media. Cells were incubated for 1 h, and recorded absorbance at 490 nm using an ELISA plate reader. The absorbance is directly proportional to the number of living cells and is expressed as a percent relative to vehicle-treated cells.
# UB/OC1 cells = test: Bax/Bcl-2 ratio in UB/OC1 cells; assay type: cell-based, mouse
# Wistar rats [1] = test: ABR threshold shifts, noise induced hearing loss (NIHL); assay type: in vivo, rat
# Description: Male Wistar rats (150-250 gm) were used for this study under an animal care protocol approved by the Laboratory and Animal Care and Use Committee (SIU School of Medicine). Pre-treatment ABRs were performed. Animals were then treated according to the experimental paradigm. Prevention strategy: consisted of administration of ETA either intra-tympanic ally (IT) (250 μg/50 μl) or subcutaneously (sc) (3 mg/kg) or PBS (IT-50 μl or sc-1 ml) either 3 days or 7 days prior to noise exposure (NE).
# Animals were exposed to noise (NE), and then provided ETA treatments either IT or SC at either 2 h or 24 h post noise injury. Post treatment ABR thresholds were determined at 21 days post noise exposure and cochleae were excised for morphological, molecular and biochemical studies. Cochleae used for RNA preparations were flushed immediately with RNA later and kept in RNA later for 24 h at 4° C. Those used for immunohistochemical studies were perfused and fixed with 4% paraformaldehyde, while those used for Scanning electron microscopy (SEM) were perfused and fixed with 2.5% glutaraldehyde. Cochleae used for whole mounts were decalcified for 7-10 days in 100 mM EDTA at room temperature.
# Male Wistar rats were exposed to octave band noise at 122 dB centered at 16 kHz for 1 h under isofluorane anesthesia, with the 3 inch silicon tubes attached to the high frequency transducer resting in the middle ear cavity. This exposure typically results in a 30-50 dB temporary threshold shift (measured as an immediate pre-to-post noise exposure shift in ABR thresholds) across all frequencies; with slightly more elevation at those frequencies around 16 kHz and 20-40 dB permanent threshold shift measured at 21 days post noise exposure at all frequencies. Acoustic stimuli are calibrated using a cloth model rat and a Bruel & Kjaer Pulse System with a ½ inch free-field microphone (B&K model 4191). Baseline noise levels in the test chamber (with background test noise turned off) are typically measured below 20 dB SPL in the 4-40 kHz range.
# Pre-treatment ABR thresholds were determined using the high frequency Intelligent Hearing Systems (IHS) on naive rats prior to any treatment or noise exposure for each ear. Animals were tested with a stimulus intensity series that was initiated at 0 dB sound pressure level (SPL) and reached a maximum at 90 dB SPL. The stimulus intensity levels were increased in 10 dB increments, and the evoked ABR waveforms were observed on a video monitor. The auditory stimuli included tone bursts at 8, 16, and 32 kHz with a 10 msec plateau and a 1 msec rise/fall time presented at a rate of 5/sec. Threshold was defined as the lowest intensity capable of evoking a reproducible, visually detectable response with two distinct waveforms and minimum amplitude of 0.5 μV.
# Preconditioning of the TRPV1 receptor in the rat cochlea by oral administration of capsaicin is shown here to protect from NIHL. Male Wistar rats weighing 200-250 gms were used. ABRs from naïve rats were recorded. Rats were then treated with oral phosphate buffered saline (PBS—1 ml) or capsaicin (1 ml of 20 mg/ml) starting 24 hrs prior to NE, on the day of NE, and 24 hrs post NE. The final ABRs were recorded 21 days post NE. Cochleae were collected for various biochemical tests and immunohistochemistry. At least 6 animals were used per treatment group. NE caused an ABR threshold shift of 21.6±1.7, 35.5±1.9 and 43.9±2.3 dB threshold shift at 8, 16 and 32 kHz respectively. Oral capsaicin treatment completely protects from NIHL (3.9±1.4, 6.1±1.8 and 8.9±2.1 dB threshold shift at 8, 16 and 32 kHz respectively), there is no significant change in ABR threshold shift compared to control. […] Statistical significance was calculated using one way ANOVA with Tukey's post-hoc analyses, p<0.05 (FIG. 16.A.).
# ABR measurements were conducted in naïve male Wistar rats. […]
# Wistar rats [2] = conditions: capsaicin TT 50 μl of 0.1 μM; Mukherjea et al., 2011; cited from earlier work
# rat cochlea = test: Cochlear gene expression by qPCR after noise exposure; assay type: in vivo
# Description: Cochleae were pared down to the bone, crushed in liquid nitrogen followed by extraction in 500 μl of TRI reagent. 0.1 ml of chloroform was added, and the tube was shaken vigorously for 15 seconds and centrifuged at 12,000×g for 15 min. RNA was extracted by washing the pellet with 0.5 ml ice-cold isopropanol followed by cold 75% treated ethanol. The ethanol was removed and the tube was air dried briefly. The RNA pellet was resuspended in nuclease free water and RNA levels were determined using optical density readings corresponding to wavelengths of 260 nm, 280 and 320 nm using a spectrophotometer (Eppendorf BioPhotometer, Hamburg, Germany).
# 500 ng of total RNA was converted to cDNA using iScript cDNA Synthesis Kit (Bio-Rad, Hercules, CA). The reaction mixture was set up as follows: Ing of total RNA, 4 μl of iScript reaction mix, 1 μl of iScript reverse transcriptase, nuclease free water to bring the total volume to 20 μl. The reaction mix was incubated at 25° C. for 5 min, 42° C. for 30 minutes and 85° C. for 5 minutes. This cDNA reaction mix was used for real time PCR, as described previously [Mukherjea et al., 2006]. Gene specific primer pairs were used for the various reactions and mRNA expression levels were normalized to the levels of GAPDH. The primer sets were purchased from Sigma Genosys (St. Louis, MO), and were as follows: […]
# [3] = oral capsaicin 24 hrs prior, day of and 24 hrs post NE, 21 days post NE
smiles,measurement,setting,value
"COc1cc(CNC(=O)CCCC/C=C/C(C)C)ccc1O [capsaicin, 8-methyl-N-vanillyl-trans-6-nonenamide]",cisplatin-induced cell killing,UB/OC-1 cells,blocked cisplatin-induced cell killing
same,Bax/Bcl-2 ratios,UB/OC1 cells,1.1±0.2
same,Wave 1 amplitude versus sound intensity,"Wistar rats [1]; capsaicin 5 mg/kg oral, ETA 1 mg/kg, noise exposure (FIG. 18.B)",partial restoration
same,NE threshold shift,"Wistar rats [1]; intra-tympanic or oral capsaicin, 21 days after NE",abrogated
same,ABR threshold shift at 8 kHz,Wistar rats [1]; [3],3.9±1.4 dB
same,ABR threshold shift at 16 kHz,Wistar rats [1]; [3],6.1±1.8 dB
same,ABR threshold shift at 32 kHz,Wistar rats [1]; [3],8.9±2.1 dB
same,ABR threshold shift at 8 kHz,"Wistar rats [1]; oral capsaicin alone, no NE",1±1.1 dB
same,ABR threshold shift at 16 kHz,"Wistar rats [1]; oral capsaicin alone, no NE",1±1.1 dB
same,ABR threshold shift at 32 kHz,"Wistar rats [1]; oral capsaicin alone, no NE",3±1.6 dB
same,duration of transient ABR threshold shift,Wistar rats [2],24 h
same,Bax gene expression over oral PBS control,rat cochlea; oral Cap+NE,0.86±0.1 fold
same,COX2 gene expression over oral PBS control,rat cochlea; oral Cap+NE,0.84±0.2 fold
same,NOX3 gene expression over oral PBS control,rat cochlea; oral Cap+NE,0.5±0.2 fold
same,TNF-α gene expression over oral PBS control,rat cochlea; oral Cap+NE,0.9±0.1 fold
same,TRPV1 gene expression over oral PBS control,rat cochlea; oral Cap+NE,0.85±0.2 fold
same,Bax gene expression over oral PBS control,rat cochlea; oral capsaicin alone,0.69±0.1 fold
same,COX2 gene expression over oral PBS control,rat cochlea; oral capsaicin alone,1±0.1 fold
same,NOX3 gene expression over oral PBS control,rat cochlea; oral capsaicin alone,0.7±0.2 fold
same,TNF-α gene expression over oral PBS control,rat cochlea; oral capsaicin alone,1±0.15 fold
same,TRPV1 gene expression over oral PBS control,rat cochlea; oral capsaicin alone,0.9±0.1 fold
